# Measured values reported in US4120892A, “Anionic naphthalene thioureido naphthalene sulfonic acids” (American Cyanamid Company, priority 1977, dated 1978).
# Structures can show the parent of a compound that is named as a salt. Where two headings read alike, the source gives them in different places.
# How the values were obtained:
# [1] = reported in The New England Journal of Medicine, 286, 808-812 (1972); cited from earlier work
# [2] = tested on: complement system; settings: reported in the literature; cited from earlier work
# [3] = tested on: shunt pathway; assay: Test, Code 036 (C-Shunt inhibitor); type: cell-based, human; settings: activity in wells, two-fold serial dilution assay; higher well number indicates higher activity
# From the text: (§1) An active inhibitor protects C2 from C1 and C4; (ii) Test, Code 035 (C3-C9 inhibitor -- This test determines the ability of the late components of human complement (C3-C9) to lyse EAC 142 in the presence of appropriate dilutions of the test compound. An active inhibitor protects EAC 142 from lysis by human C3-C9; (iii) Test, Code 036 (C-Shunt inhibitor) -- In this test human erythrocytes rendered fragile are lysed in autologous serum via the shunt pathway activated by cobra venom factor in the presence of appropriate dilutions of the test compound. Inhibition of the shunt pathway results in failure of lysis; (iv) Forssman Vasculitis Test -- Here, the well known complement dependent lesion, Forssman vasculitis, is produced in guinea pigs by intradermal injection of rabbit anti-Forssman antiserum. […]
# (§2) With reference to Table I, guinea pigs weighing about 300 g were dosed intravenously (i.v.) or intraperitoneally (i.p.) with 200 mg/kg of the test compound dissolved in saline and adjusted to pH 7-8. […] Percent inhibition was calculated by comparison with simultaneous controls. […]
# [4] = tested on: late components of human complement (C3-C9); assay: Test, Code 035 (C3-C9 inhibitor; C-Late); type: cell-based; settings: activity in wells, two-fold serial dilution assay; higher well number indicates higher activity
# From the text: as §1, §2
# [5] = tested on: whole complement; assay: In vivo complement inhibition in guinea pigs (serum whole complement, capillary tube assay); settings: Cavia porcellus, ip, guinea pig, intraperitoneal
# From the text: An active inhibitor protects C2 from C1 and C4; (ii) Test, Code 035 (C3-C9 inhibitor -- This test determines the ability of the late components of human complement (C3-C9) to lyse EAC 142 in the presence of appropriate dilutions of the test compound. An active inhibitor protects EAC 142 from lysis by human C3-C9; (iii) Test, Code 036 (C-Shunt inhibitor) -- In this test human erythrocytes rendered fragile are lysed in autologous serum via the shunt pathway activated by cobra venom factor in the presence of appropriate dilutions of the test compound. Inhibition of the shunt pathway results in failure of lysis; (iv) Forssman Vasculitis Test -- Here, the well known complement dependent lesion, Forssman vasculitis, is produced in guinea pigs by intradermal injection of rabbit anti-Forssman antiserum. The lesion is measured in terms of diameter, edema and hemorrhage and the extent to which a combined index of these is inhibited by prior intraperitoneal injection of the test compound at 200 mg/kg is then reported, unless otherwise stated; (v) Forssman Shock Test -- Lethal shock is produced in guinea pigs by an i.v. injection of anti-Forssman antiserum and the harmonic mean death time of treated guinea pigs is compared with that of simultaneous controls; (vi) Complement Level Reduction Test -- In this test, the above dosed guinea pigs, or others, are bled for serum and the complement level is determined in undiluted serum by the capillary tube method of U.S. Pat. No. 3,876,376 and compared to undosed control guinea pigs; and (vii) Cap 50 Test -- Here, appropriate amounts of the test compound are added to a pool of guinea pig serum in vitro, after which the undiluted serum capillary tube assay referred to above is run. The concentration of compound inhibiting 50% is reported.
# as §2
# [6] = tested on: human C1; assay: Test, Code 026 (C1 inhibitor); type: biochemical; settings: activity in wells, two-fold serial dilution assay; higher well number indicates higher activity
# From the text: as §1, §2
Compound,treatment of hereditary angioneurotic edema [1],anticomplementary effect / complement inhibition [2],also measured
NC[C@H]1CC[C@H](C(=O)O)CC1 [tranexamic acid],used with success in the treatment of hereditary angioneurotic edema,–,–
"Nc1ccc2cc(S(=O)(=O)O)cc(O)c2c1N=Nc1ccc(NC(=O)Nc2ccc(N=Nc3c(N)ccc4cc(S(=O)(=O)O)cc(O)c34)c(S(=O)(=O)O)c2)cc1S(=O)(=O)O [chlorazol fast pink, 3,3'-ureylenebis-[6-(2-amino-8-hydroxy-6-sulfo-1-naphthylazo)]benzenesulfonic acid, tetrasodium salt]",–,anticomplementary effect,–
"8-(3-benzamido-4-methylbenzamido)naphthalene-1,3,5-trisulfonic acid [Suramin]",used with success in the treatment of hereditary angioneurotic edema,competitive inhibitor of the complement system,–
"O=S(=O)(O)c1cc(NC(=S)Nc2cc(S(=O)(=O)O)c3cc(NC(=S)Nc4cc(S(=O)(=O)O)cc5cc(S(=O)(=O)O)cc(S(=O)(=O)O)c45)cc(S(=O)(=O)O)c3c2)c2c(S(=O)(=O)O)cc(S(=O)(=O)O)cc2c1 [8,8'-[4,8-Disulfo-2,6-naphthylenebis(2-thioureylene)]-di-1,3,6-naphthalenetrisulfonic acid octasodium salt]",–,–,"Shunt Inhibition 036 Wells [3]: +2 Wells; C-Late 035 Wells [4]: +2 Wells; inhibition at 200 mg/kg ([5]; 0.5 h, 30 minutes, read-out: In Vivo Activity (Guinea Pig) % Inhibition, Intraperitoneal, 30 minutes): -86%; inhibition at 200 mg/kg ([5]; 1 h, 60 minutes, read-out: In Vivo Activity (Guinea Pig) % Inhibition, Intraperitoneal, 60 minutes): -84%; inhibition at 200 mg/kg ([5]; 2 h, 120 minutes, read-out: In Vivo Activity (Guinea Pig) % Inhibition, Intraperitoneal, 120 minutes): -93%; Cl 026 Wells [6]: +5 Wells"
NCCCCCC(=O)O [epsilon-aminocaproic acid],used with success in the treatment of hereditary angioneurotic edema,–,–
heparin,–,anticomplementary effect,–
